For 32 molecules, Kd and ΔTm results are on record in ChEMBL document CHEMBL5104180, “Design, Synthesis, and Evaluation of New Sugar-Substituted Imidazole Derivatives as Selective c-MYC Transcription Repressors Targeting the Promoter G-Quadruplex” (J Med Chem, 2022).

Each structure is given as a SMILES string. Bounds are passed on as bounds.

The nature of experiment [1]: Binding affinity to human G-rich Htg22 DNA assessed as binding constant by SPR analysis.
Experiment [2] is described as follows: Binding affinity to G-rich NRAS RNA (unknown origin) assessed as binding constant by SPR analysis.
Experiment [3] in a line: Binding affinity to G-rich HRAS DNA (unknown origin) assessed as binding constant by SPR analysis. (In general: Surface plasmon resonance follows binding to a sensor surface in real time, without labels.)
Experiment [4] is described as follows: Binding affinity to Hairpin DNA (unknown origin) assessed as binding constant by SPR analysis.
A short description of experiment [5]: Binding affinity to G-rich KRAS DNA (unknown origin) assessed as binding constant by SPR analysis.
Experiment [6] deals with Quadruplex DNA. As to the kind of experiment: Binding affinity to c-MYC G4- quadruplex DNA Pu22 (unknown origin) assessed as binding constant by SPR analysis. In kind it is nucleic-acid assay.
Experiment [7] has as its system Quadruplex DNA. Kind of experiment: Stabilization of c-MYC G4 quadruplex DNA Pu22 (unknown origin) assessed as change in melting temperature at 2 uM by CD spectroscopy. In kind it is nucleic-acid assay.
The target of experiment [8] is RNA. Kind of experiment: Binding affinity to NRAS RNA mutant (unknown origin) assessed as binding constant by SPR analysis.
Experiment [9] has as its target Quadruplex DNA. As to the kind of experiment: Binding affinity to c-MYC G4 quadruplex DNA Pu22 (unknown origin) assessed as binding constant by SPR analysis. Type of experiment: nucleic-acid assay.

By Kd is commonly meant the concentration at which binding is half-saturated. One may read the ΔTm as the change in melting temperature against a reference sample. As for `CCn1c2ccccc2c2cc(-c3nc(-c4ccc(N5CCN(C)CC5)cc4)c(-c4ccc(N5CCN(Cc6cn(CCOCCO)nn6)CC5)cc4)[nH]3)ccc21`, the equilibrium dissociation constant (Kd) in [1] was over 20 µM; in experiment [2], 14.5 µM; in experiment [3], 2.8 µM; in [4], over 20 µM; in experiment [5] it was 5.6 µM; in [6] it was 1.2 µM. The dissociation constant Kd in experiment [8] and in [9] was over 20 µM each time. For the same molecule, in [7], the shift in melting temperature (ΔTm) amounted to 18.7 °C.

Regarding `CCn1c2ccccc2c2cc(-c3nc(-c4ccc(N5CCN(C)CC5)cc4)c(-c4ccc(N5CCN(C)CC5)cc4)n3-c3ccc(O[C@@H]4O[C@H](CO)[C@@H](O)[C@H](O)[C@H]4O)cc3)ccc21`, the Kd is over 20 µM in experiment [1]; 16.9 µM in experiment [2]; 6.8 µM in [3]; over 20 µM in experiment [4]; 12.5 µM in [5]; 1.8 µM in [6]. The Kd in experiment [8] and in experiment [9] was over 20 µM throughout. Further, the shift in melting temperature (ΔTm) in [7] is 15.5 °C.

`CCn1c2ccccc2c2cc(-c3nc(-c4ccc(N5CCN(C)CC5)cc4)c(-c4ccc(N5CCN(C)CC5)cc4)n3-c3ccc(OCCOCCOC(C)=O)cc3)ccc21`: the Kd in experiment [1] was over 20 µM; in experiment [2], over 20 µM; in [3], 19.1 µM; in experiment [4], over 20 µM; in [5] it was 10.2 µM; in [6], 4 µM. In addition, the dissociation constant Kd in experiment [8] and in experiment [9] was over 20 µM in each case. In addition, in experiment [7], the shift in melting temperature (ΔTm) was found to be 21.2 °C.

Turning to `CCn1c2ccccc2c2cc(-c3nc(-c4ccc(N5CCN(C)CC5)cc4)c(-c4ccc(N5CCN(C)CC5)cc4)n3-c3ccc(O)cc3)ccc21`, the ΔTm in [7] came out at 14.5 °C.

Consider `CCn1c2ccccc2c2cc(-c3nc(-c4ccc(N5CCN(C)CC5)cc4)c(-c4ccc(N5CCN(C)CC5)cc4)n3-c3ccc(OCCCO)cc3)ccc21`, for which, in [7], the shift in melting temperature (ΔTm) is 9.2 °C.

On to `CCn1c2ccccc2c2cc(-c3nc(-c4ccc(N5CCN(C)CC5)cc4)c(-c4ccc(N5CCN(C)CC5)cc4)n3-c3ccc(OCCCOC(C)=O)cc3)ccc21`, for which the ΔTm in [7] came to 6.8 °C.

For `CCn1c2ccccc2c2cc(-c3nc(-c4ccc(N5CCN(C)CC5)cc4)c(-c4ccc(N5CCN(C)CC5)cc4)n3-c3ccc(OCc4ccccc4)cc3)ccc21`, the shift in melting temperature (ΔTm) in [7] worked out at 7.6 °C.

Regarding `CCn1c2ccccc2c2cc(-c3nc(-c4ccc(N5CCN(C)CC5)cc4)c(-c4ccc(N5CCN(C)CC5)cc4)n3CCOC(C)=O)ccc21`, the ΔTm in experiment [7] came to 11.1 °C.

With `CCn1c2ccccc2c2cc(-c3nc(-c4ccc(N5CCN(C)CC5)cc4)c(-c4ccc(N5CCN(C)CC5)cc4)n3CCOCCO)ccc21`, the ΔTm in experiment [7] came out at 11.6 °C.

As to `CCn1c2ccccc2c2cc(-c3nc(-c4ccc(N5CCN(C)CC5)cc4)c(-c4ccc(N5CCN(C)CC5)cc4)n3CCOCCOC(C)=O)ccc21`, the shift in melting temperature (ΔTm) in experiment [7] worked out at 10.4 °C.

On to `COc1ccc(-n2c(-c3ccc4c(c3)c3ccccc3n4Cc3cn(CCOCCO)nn3)nc(-c3ccc(N4CCN(C)CC4)cc3)c2-c2ccc(N3CCN(C)CC3)cc2)cc1`, for which, in experiment [7], the thermal shift (ΔTm) amounted to 13.4 °C.

For `COc1ccc(-n2c(-c3ccc4c(c3)c3ccccc3n4Cc3cn([C@@H]4O[C@H](COC(C)=O)[C@@H](OC(C)=O)[C@H](OC(C)=O)[C@H]4OC(C)=O)nn3)nc(-c3ccc(N4CCN(C)CC4)cc3)c2-c2ccc(N3CCN(C)CC3)cc2)cc1`, the ΔTm in [7] worked out at 13.4 °C.

`CCn1c2ccccc2c2cc(-c3nc(-c4ccc(N5CCN(C)CC5)cc4)c(-c4ccc(N5CCN(C)CC5)cc4)n3-c3ccc(OCCOCCO[C@@H]4O[C@H](CO)[C@@H](O)[C@H](O)[C@H]4N)cc3)ccc21` (single isomer, unassigned): the dissociation constant (Kd) is over 20 µM in experiment [1]; 5.8 µM in experiment [2]; 2.3 µM in experiment [3]; over 20 µM in experiment [4]; 2.3 µM in experiment [5]; 0.8 µM in experiment [6]. Besides, the Kd in experiment [8] and in [9] was over 20 µM throughout. Further, the thermal shift (ΔTm) in experiment [7] is 21.7 °C.

Take `CCn1c2ccccc2c2cc(-c3nc(-c4ccc(N5CCN(C)CC5)cc4)c(-c4ccc(N5CCN(C)CC5)cc4)n3-c3ccc(OCCCOC4(C)O[C@H]5O[C@H](CO)[C@@H](O)[C@H](O)[C@H]5O4)cc3)ccc21` (single isomer, unassigned): the thermal shift (ΔTm) in experiment [7] was 14.6 °C.

Consider `CCn1c2ccccc2c2cc(-c3nc(-c4ccc(N5CCN(C)CC5)cc4)c(-c4ccc(N5CCN(C)CC5)cc4)n3-c3ccc(OCCCO[C@@H]4O[C@H](COC(C)=O)[C@@H](OC(C)=O)[C@H](OC(C)=O)[C@H]4OC(C)=O)cc3)ccc21` (single isomer, unassigned), for which the ΔTm in experiment [7] is 13.7 °C.

With `CCn1c2ccccc2c2cc(-c3nc(-c4ccc(N5CCN(C)CC5)cc4)c(-c4ccc(N5CCN(C)CC5)cc4)n3-c3ccc(OCCCO[C@@H]4O[C@H](COC(C)=O)[C@H](OC(C)=O)[C@H](OC(C)=O)[C@H]4OC(C)=O)cc3)ccc21` (single isomer, unassigned), the shift in melting temperature (ΔTm) in [7] is 10.9 °C.

Turning to `CCn1c2ccccc2c2cc(-c3nc(-c4ccc(N5CCN(C)CC5)cc4)c(-c4ccc(N5CCN(C)CC5)cc4)n3-c3ccc(OCCOCCO[C@@H]4O[C@H](COC(C)=O)[C@@H](OC(C)=O)[C@H](OC(C)=O)[C@H]4NC(=O)C(F)(F)F)cc3)ccc21` (single isomer, unassigned), the shift in melting temperature (ΔTm) in experiment [7] was found to be 14 °C.

For `CCn1c2ccccc2c2cc(-c3nc(-c4ccc(N5CCN(C)CC5)cc4)c(-c4ccc(N5CCN(C)CC5)cc4)n3-c3ccc(OCCOCCO[C@@H]4O[C@H](COC(C)=O)[C@@H](OC(C)=O)[C@H](OC(C)=O)[C@H]4OC(C)=O)cc3)ccc21` (single isomer, unassigned), the shift in melting temperature (ΔTm) in [7] amounted to 14.2 °C.

As for `CCn1c2ccccc2c2cc(-c3nc(-c4ccc(N5CCN(C)CC5)cc4)c(-c4ccc(N5CCN(C)CC5)cc4)n3-c3ccc(OCCOCCO[C@@H]4O[C@H](COC(C)=O)[C@H](OC(C)=O)[C@H](OC(C)=O)[C@H]4OC(C)=O)cc3)ccc21` (single isomer, unassigned), in experiment [7], the ΔTm was 12.8 °C.

Turning to `CCn1c2ccccc2c2cc(-c3nc(-c4ccc(N5CCN(C)CC5)cc4)c(-c4ccc(N5CCN(C)CC5)cc4)n3-c3ccc(O[C@@H]4O[C@H](COC(C)=O)[C@@H](OC(C)=O)[C@H](OC(C)=O)[C@H]4OC(C)=O)cc3)ccc21` (single isomer, unassigned), the shift in melting temperature (ΔTm) in experiment [7] stood at 10.7 °C.

In the case of `CCn1c2ccccc2c2cc(-c3nc(-c4ccc(N5CCN(C)CC5)cc4)c(-c4ccc(N5CCN(C)CC5)cc4)n3CCOCCO[C@@H]3O[C@H](COC(C)=O)[C@@H](OC(C)=O)[C@H](OC(C)=O)[C@H]3OC(C)=O)ccc21` (single isomer, unassigned), the thermal shift (ΔTm) in [7] came out at 11.4 °C.

In the case of `CCn1c2ccccc2c2cc(-c3nc(-c4ccc(N5CCN(C)CC5)cc4)c(-c4ccc(N5CCN(C)CC5)cc4)n3CCOCCO[C@@H]3O[C@H](COC(C)=O)[C@H](OC(C)=O)[C@H](OC(C)=O)[C@H]3OC(C)=O)ccc21` (single isomer, unassigned), the shift in melting temperature (ΔTm) in [7] was 10.3 °C.

Take `CCn1c2ccccc2c2cc(-c3nc(-c4ccc(N5CCN(C)CC5)cc4)c(-c4ccc(N5CCN(C)CC5)cc4)n3CCOCCO[C@H]3OC(CO)C(O)[C@@H](O)[C@@H]3O)ccc21` (single isomer, unassigned): in experiment [7], the ΔTm came out at 14.9 °C.

As for `CCn1c2ccccc2c2cc(-c3nc(-c4ccc(N5CCN(C)CC5)cc4)c(-c4ccc(N5CCN(C)CC5)cc4)n3CCO[C@@H]3O[C@H](CO)[C@@H](O)[C@H](O)[C@H]3O)ccc21` (single isomer, unassigned), the thermal shift (ΔTm) in experiment [7] was found to be 14.7 °C.

Turning to `CCn1c2ccccc2c2cc(-c3nc(-c4ccc(N5CCN(C)CC5)cc4)c(-c4ccc(N5CCN(C)CC5)cc4)n3CCO[C@@H]3O[C@H](CO)[C@H](O)[C@H](O)[C@H]3O)ccc21` (single isomer, unassigned), in experiment [7], the shift in melting temperature (ΔTm) amounted to 11.3 °C.

As for `CCn1c2ccccc2c2cc(-c3nc(-c4ccc(N5CCN(C)CC5)cc4)c(-c4ccc(N5CCN(C)CC5)cc4)n3CCO[C@@H]3O[C@H](COC(C)=O)[C@@H](OC(C)=O)[C@H](OC(C)=O)[C@H]3OC(C)=O)ccc21` (single isomer, unassigned), the ΔTm in experiment [7] was 7.1 °C.

For `CCn1c2ccccc2c2cc(-c3nc(-c4ccc(N5CCN(C)CC5)cc4)c(-c4ccc(N5CCN(C)CC5)cc4)n3CCO[C@@H]3O[C@H](COC(C)=O)[C@H](OC(C)=O)[C@H](OC(C)=O)[C@H]3OC(C)=O)ccc21` (single isomer, unassigned), the ΔTm in experiment [7] amounted to 9.3 °C.

In the case of `CCn1c2ccccc2c2cc(-c3nc(-c4ccc(N5CCN(C)CC5)cc4)c(-c4ccc(N5CCN(Cc6cn([C@@H]7O[C@H](COC(C)=O)[C@@H](OC(C)=O)[C@H](OC(C)=O)[C@H]7OC(C)=O)nn6)CC5)cc4)[nH]3)ccc21` (single isomer, unassigned), the shift in melting temperature (ΔTm) in [7] amounted to 15.4 °C.

With `CCn1c2ccccc2c2cc(-c3nc(-c4ccc(N5CCN(C)CC5)cc4)c(-c4ccc(N5CCN(Cc6cn([C@@H]7O[C@H](COC(C)=O)[C@H](OC(C)=O)[C@H](OC(C)=O)[C@H]7OC(C)=O)nn6)CC5)cc4)[nH]3)ccc21` (single isomer, unassigned), in experiment [7], the ΔTm amounted to 15.1 °C.

As for `COc1ccc(-n2c(-c3ccc4c(c3)c3ccccc3n4Cc3cn([C@@H]4O[C@H](CO)[C@@H](O)[C@H](O)[C@H]4O)nn3)nc(-c3ccc(N4CCN(C)CC4)cc3)c2-c2ccc(N3CCN(C)CC3)cc2)cc1` (single isomer, unassigned), the ΔTm in [7] came out at 10.3 °C.

`COc1ccc(-n2c(-c3ccc4c(c3)c3ccccc3n4Cc3cn([C@@H]4O[C@H](CO)[C@H](O)[C@H](O)[C@H]4O)nn3)nc(-c3ccc(N4CCN(C)CC4)cc3)c2-c2ccc(N3CCN(C)CC3)cc2)cc1` (single isomer, unassigned): the ΔTm in [7] was determined as 12.4 °C.

In the case of `COc1ccc(-n2c(-c3ccc4c(c3)c3ccccc3n4Cc3cn([C@@H]4O[C@H](COC(C)=O)[C@H](OC(C)=O)[C@H](OC(C)=O)[C@H]4OC(C)=O)nn3)nc(-c3ccc(N4CCN(C)CC4)cc3)c2-c2ccc(N3CCN(C)CC3)cc2)cc1` (single isomer, unassigned), the ΔTm in [7] is 13.3 °C.
